According to patent US20220144815A1, “1,3,4-OXADIAZOLES AND THEIR DERIVATIVES AS NEW ANTIFUNGAL AGENTS” (Bayer Aktiengesellschaft, priority 2018, published 2022):
Read-outs that look alike come from different tables or passages of the source.

Experiments:
[1] = Log P by HPLC on reversed phase columns, method [a] (EEC directive 79/831 Annex V.A8); format: physicochemical; conditions: for chromatographic logP: reversed phase HPLC column
Method in brief: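 Reversed-phase HPLC with LC-UV detection per EEC directive 79/831 Annex V.A8, acidic eluent of 0.1% formic acid in water and acetonitrile, linear gradient 10% to 95% acetonitrile. Log P derived from retention times, calibrated against straight-chain alkan-2-ones (C3–C16) by linear interpolation.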

[2] = system: Colletotrichum lindemuthianum; experiment: Example B: in vitro cell test, spore germination and mycelium growth in liquid culture; format: cell-based; conditions: 144 h, 20 ppm of tested compound, 6 days incubation, read-out: efficacy (inhibition of fungal growth)
Procedure: • Solvent: dimethyl sulfoxide Culture medium: 14.6 g anhydrous D-glucose (VWR), • 7.1 g mycological peptone (Oxoid), • 1.4 g granulated yeast extract (Merck), QSP 1 liter Inoculum: spore suspension The tested compounds were solubilized in dimethyl sulfoxide and the solution used to prepare the required range of concentrations. The final concentration of dimethyl sulfoxide used in the assay was ≤1%. A spore suspension of Colletotrichum lindemuthianum was prepared and diluted to the desired spore density. The compounds were evaluated for their ability to inhibit spore germination and mycelium growth in liquid culture assay. The compounds were added in the desired concentration to the culture medium with spores. After 6 days incubation, fungi-toxicity of compounds was determined by spectrometric measurement of mycelium growth. Inhibition of fungal growth was determined by comparing the absorbance values in wells containing the tested compounds with the absorbance in control wells without tested compounds.

[3] = log P determined according to method [a] (HPLC on reversed phase columns), read-out: logP
[4] = method [a], HPLC on reversed phase columns, read-out: logP
[5] = log P determined according to method [a] (HPLC on reversed phase columns)

Row | chromatographic logP [1, 4] | Compound | inhibition of growth at 20 µg/mL [2] | further results
1 | 1.11 | CC(C)(Nc1ncc(-c2nnc(C(F)F)o2)cn1)c1ccccn1 [I.198, 5-[5-(difluoromethyl)-1,3,4-oxadiazol-2-yl]-N-[2-(pyridin-2-yl)propan-2-yl]pyrimidin-2-amine] |  | 
2 | 3.44 | CC(C)(CNc1ncc(-c2nnc(C(F)F)o2)cn1)c1ccc(F)cc1 [I.224, 5-[5-(difluoromethyl)-1,3,4-oxadiazol-2-yl]-N-[2-(4-fluorophenyl)-2-methylpropyl]pyrimidin-2-amine] |  | 
3 | 3.49 | FC(F)c1nnc(-c2cnc(NC3(c4ccccc4Br)CC3)nc2)o1 [I.183, N-[1-(2-bromophenyl)cyclopropyl]-5-[5-(difluoromethyl)-1,3,4-oxadiazol-2-yl]pyrimidin-2-amine] | 80 to 89% | 
4 | 3.2 | CC(Nc1ncc(-c2nnc(C(F)F)o2)cn1)c1cccc(Cl)c1 (racemic) [I.213, N-[(1RS)-1-(3-chlorophenyl)ethyl]-5-[5-(difluoromethyl)-1,3,4-oxadiazol-2-yl]pyrimidin-2-amine] |  | 
5 | 2.65 | CC(C)C1(Nc2ncc(-c3nnc(C(F)F)o3)cn2)CC1 [I.187, 5-[5-(difluoromethyl)-1,3,4-oxadiazol-2-yl]-N-(1-isopropylcyclopropyl)pyrimidin-2-amine] |  | 
6 | 2.9 | Fc1ccc(C(F)(F)CNc2ncc(-c3nnc(C(F)F)o3)cn2)cc1 [I.234, N-[2,2-difluoro-2-(4-fluorophenyl)ethyl]-5-[5-(difluoromethyl)-1,3,4-oxadiazol-2-yl]pyrimidin-2-amine] |  | 
7 | 2.84 | Fc1ccc(CCNc2ncc(-c3nnc(C(F)F)o3)cn2)cc1 [I.200, 5-[5-(difluoromethyl)-1,3,4-oxadiazol-2-yl]-N-[2-(4-fluorophenyl)ethyl]pyrimidin-2-amine] |  | 
8 | 1 | CC(Nc1ncc(-c2nnc(C(F)F)o2)cn1)c1ccccn1 (racemic) [I.189, 5-[5-(difluoromethyl)-1,3,4-oxadiazol-2-yl]-N-[(1RS)-1-(pyridin-2-yl)ethyl]pyrimidin-2-amine] |  | 
9 | 3.64 | CCC(Nc1ncc(-c2nnc(C(F)F)o2)cn1)c1ccccc1Br (racemic) [I.260, N-[(1RS)-1-(2-bromophenyl)propyl]-5-[5-(difluoromethyl)-1,3,4-oxadiazol-2-yl]pyrimidin-2-amine] |  | 

The remaining lines, values behind:

Row | Compound | chromatographic logP [1, 4] | inhibition of growth at 20 µg/mL [2] | further results
10 | N#CC(Nc1ncc(-c2nnc(C(F)F)o2)cn1)c1ccc(F)cc1 (racemic) [I.141, (2RS)—({5-[5-(difluoromethyl)-1,3,4-oxadiazol-2-yl]pyrimidin-2-yl}amino)(4-fluorophenyl)acetonitrile] |  | 70 to 79% | chromatographic logP [1, 3]: 2.65
11 | FC(F)c1nnc(-c2cnc(NC3(c4ccccc4)CCC3)nc2)s1 [I.159, 5-[5-(difluoromethyl)-1,3,4-thiadiazol-2-yl]-N-(1-phenylcyclobutyl)pyrimidin-2-amine] |  | 90 to 100% | chromatographic logP [1, 3]: 3.54
12 | FC(F)c1nnc(-c2cnc(NCC3CC3)nc2)o1 [I.067, N-(cyclopropylmethyl)-5-[5-(difluoromethyl)-1,3,4-oxadiazol-2-yl]pyrimidin-2-amine] |  | 80 to 89% | 
13 | COc1ccc(-c2ncc(-c3nnc(C(F)F)o3)cn2)cc1 [I.089, 5-[5-(difluoromethyl)-1,3,4-oxadiazol-2-yl]-2-(4-methoxyphenyl)pyrimidine] |  | 90 to 100% | 
14 | C#CCNc1ncc(-c2nnc(C(F)F)o2)cn1 [I.063, 5-[5-(difluoromethyl)-1,3,4-oxadiazol-2-yl]-N-(prop-2-yn-1-yl)pyrimidin-2-amine] |  | 90 to 100% | 
15 | CON(Cc1ccc(Cl)cc1)c1ncc(-c2nnc(C(F)F)o2)cn1 [I.169, N-(4-chlorobenzyl)-N-{5-[5-(difluoromethyl)-1,3,4-oxadiazol-2-yl]pyrimidin-2-yl}-O-methylhydroxylamine] |  | 80 to 89% | chromatographic logP [1, 3]: 3.31
16 | Fc1ccccc1C1(Nc2ccc(-c3nnc(C(F)F)o3)cc2)CC1 [I.025, 4-[5-(difluoromethyl)-1,3,4-oxadiazol-2-yl]-N-[1-(2-fluorophenyl)cyclopropyl]aniline] |  | 80 to 89% | 
17 | FC(F)c1nnc(-c2cnc(NC3(c4ccc(Cl)cc4)CCCCC3)nc2)o1 [I.182, N-[1-(4-chlorophenyl)cyclohexyl]-5-[5-(difluoromethyl)-1,3,4-oxadiazol-2-yl]pyrimidin-2-amine] | 4.4 | 70 to 79% | 
18 | N#Cc1ccc(C2(Nc3ncc(-c4nnc(C(F)F)o4)cn3)CC2)cc1 [I.152, 4-[1-({5-[5-(difluoromethyl)-1,3,4-oxadiazol-2-yl]pyrimidin-2-yl}amino)cyclopropyl]benzonitrile] |  | 90 to 100% | chromatographic logP [1, 3]: 2.33
19 | FC(F)(F)c1nnc(-c2cnc(NC3(c4ccccc4)CCC3)nc2)s1 [I.173, N-(1-phenylcyclobutyl)-5-[5-(trifluoromethyl)-1,3,4-thiadiazol-2-yl]pyrimidin-2-amine] | 4.12 | 80 to 89% | 
20 | CC(Nc1ncc(-c2nnc(C(F)F)o2)cn1)c1c(F)cccc1F (racemic) [I.151, 5-[5-(difluoromethyl)-1,3,4-oxadiazol-2-yl]-N-[(1RS)-1-(2,6-difluorophenyl)ethyl]pyrimidin-2-amine] |  |  | chromatographic logP [1, 3]: 3.1
21 | Fc1cc(-c2ncc(-c3nnc(C(F)F)o3)cn2)ccn1 [Example I-079] |  |  | logP [1, 5]: 2.33
22 | CSc1ccc(-c2nnc(C(F)F)o2)cc1 [Example I-002] |  |  | logP [1, 5]: 2.75
23 | Fc1ccc(CNc2ncc(-c3nnc(C(F)F)o3)cn2)cc1 [I.112, 5-[5-(difluoromethyl)-1,3,4-oxadiazol-2-yl]-N-(4-fluorobenzyl)pyrimidin-2-amine] |  | 70 to 79% | chromatographic logP [1, 3]: 2.64
24 | CC(Nc1ncc(-c2nnc(C(F)F)o2)cn1)C1CCCCC1 (racemic) [I.193, N-[(1RS)-1-cyclohexylethyl]-5-[5-(difluoromethyl)-1,3,4-oxadiazol-2-yl]pyrimidin-2-amine] | 3.74 |  | 
25 | FC(F)c1nnc(-c2cnc(NC3(c4cc(Cl)ccn4)CC3)nc2)o1 [I.228, N-[1-(4-chloropyridin-2-yl)cyclopropyl]-5-[5-(difluoromethyl)-1,3,4-oxadiazol-2-yl]pyrimidin-2-amine] | 2.31 |  | 
26 | FC(F)(Cl)c1nnc(-c2cnc(NC3(c4ccccc4)CCC3)nc2)o1 [I.176, 5-{5-[chloro(difluoro)methyl]-1,3,4-oxadiazol-2-yl}-N-(1-phenylcyclobutyl)pyrimidin-2-amine] | 4.08 | 70 to 79% | 
27 | COc1ccccc1Nc1ncc(-c2nnc(C(F)F)o2)cn1 [I.109, 5-[5-(difluoromethyl)-1,3,4-oxadiazol-2-yl]-N-(2-methoxyphenyl)pyrimidin-2-amine] |  |  | chromatographic logP [1, 3]: 2.8
28 | CC(C)(Nc1ncc(-c2nnc(C(F)F)o2)cn1)c1cccc(C(F)(F)F)c1 [I.256, 5-[5-(difluoromethyl)-1,3,4-oxadiazol-2-yl]-N-{2-[3-(trifluoromethyl)phenyl]propan-2-yl}pyrimidin-2-amine] | 3.63 |  | 
29 | O=C(NNC(=O)C(F)F)c1cnc(NC2(c3ccccc3)CCC2)nc1 [N′-(difluoroacetyl)-2-[(1-phenylcyclobutyl)amino]pyrimidine-5-carbohydrazide] |  |  | chromatographic logP ([1]; Method A: LC-UV, acidic range, 0.1% formic acid in water and acetonitrile, read-out: Log P): 1.99
30 | CC(C)C(Nc1ncc(-c2nnc(C(F)F)o2)cn1)c1ccccc1 (racemic) [I.139, 5-[5-(difluoromethyl)-1,3,4-oxadiazol-2-yl]-N-[(1RS)-2-methyl-1-phenylpropyl]pyrimidin-2-amine] |  | 90 to 100% | chromatographic logP [1, 3]: 3.57
31 | FC(F)c1nnc(-c2cnc(N3CCOCC3)nc2)o1 [Example I-074] |  |  | logP [1, 5]: 1.87
32 | Fc1ccc(-c2ncc(-c3nnc(C(F)F)o3)cn2)cn1 [Example I-080] |  |  | logP [1, 5]: 2.31
33 | CCn1nccc1Nc1ncc(-c2nnc(C(F)F)o2)cn1 [Example I-096] |  |  | logP [1, 5]: 1.49
34 | CC1(C2(Nc3ncc(-c4nnc(C(F)F)o4)cn3)CC2)CC1 [Example I-097] |  |  | logP [1, 5]: 2.89
35 | FC(F)c1nnc(-c2cnc(Cl)nc2)o1 [I.061, 2-chloro-5-[5-(difluoromethyl)-1,3,4-oxadiazol-2-yl]pyrimidine] |  | 90 to 100% | 
36 | N#Cc1ccc(-c2ncc(-c3nnc(C(F)F)o3)cn2)cc1 [Example I-085] |  |  | logP [1, 5]: 2.72
37 | COCCNC(=O)c1ccc(-c2nnc(C(F)F)o2)cn1 [Example I-047] |  |  | logP [1, 5]: 1.55
38 | FC(F)c1nnc(-c2cnc(NC3CCCC3c3ccccc3)nc2)o1 (racemic) [I.217, 5-[5-(difluoromethyl)-1,3,4-oxadiazol-2-yl]-N-[(1RS)-2-phenylcyclopentyl]pyrimidin-2-amine] | 3.44 |  | 
39 | FC(F)c1nnc(-c2cnc(-c3ccc(Cl)cc3)nc2)o1 [I.101, 2-(4-chlorophenyl)-5-[5-(difluoromethyl)-1,3,4-oxadiazol-2-yl]pyrimidine] |  |  | chromatographic logP [1, 3]: 3.6
